Source: patent US20250051319A1 (AUGUSTINE THERAPEUTICS, priority 2021, published 2025)

Biological target: catalytic domain 2 (CD2) of HDAC6 (Homo sapiens (Human), UniProt Q9UBN7)
Experiment: Cellular target engagement assay - NanoBRET
Format: cell-based
Conditions: NanoLuc-HDAC6(CD2) in HEK293T cells, 2 hours, read-out: IC50 (HDAC6(CD2) interaction)
Protocol: NanoBRET target engagement was performed against the catalytic domain 2 (CD2) of HDAC6, with minor modifications of kit manufacturer protocol (Promega). Expression of exogenous NanoLuc-HDAC6(CD2) fusion and in HEK293T was achieved following transient transfection with FuGENE HD Transfection Reagent (Promega). The intracellular target engagement assay on HDAC6(CD2) was performed in a 384-well plate format with 8,000 cells per well and a tracer concentration of 0.125 μM or 0.600 μM for HDAC6(CD2). Compounds (dissolved in 100% DMSO) or DMSO (vehicle) were added either manually by diluting them in culture medium at 8× final assay concentration and then adding 5 μL to assay plate or in an automated way by adding […] compound to 5 μL OptiMEM without phenol red (Gibco) using the Echo650 (Labcyte). Tracer solution was added to the cells before seeding 35 μL cell/tracer mixture in the assay plate. The final reaction volume was 40 μL, final DMSO concentration was 1.4% (manual compound addition) or 1.25% (automated compound addition). Assay plates were incubated at 37° C. in a humidified atmosphere containing 5% C02 for 2 hours. The NanoBRET Nano-glo Substrate/Inhibitor was prepared by diluting NanoBRET Nano-Glo Substrate (1:332) and Extracellular Inhibitor (1:1000) in assay medium (Promega). […] BRET ratios were calculated from acceptor/donor signal ratio (mBRET=acceptor/donor*1000) and normalized for each plate. Percentage inhibition was calculated by setting the mBRET obtained with cells without tracer to 100%, while the mBRET obtained with uninhibited cells with tracer was set to 0%. IC50-values were calculated from the percentage inhibition with the log(inhibitor) vs. response—Variable slope (four parameters) nonlinear regression in GraphPad Prism software.

Chain of catalytic domain 2 (CD2) of HDAC6 (Q9UBN7 482-800): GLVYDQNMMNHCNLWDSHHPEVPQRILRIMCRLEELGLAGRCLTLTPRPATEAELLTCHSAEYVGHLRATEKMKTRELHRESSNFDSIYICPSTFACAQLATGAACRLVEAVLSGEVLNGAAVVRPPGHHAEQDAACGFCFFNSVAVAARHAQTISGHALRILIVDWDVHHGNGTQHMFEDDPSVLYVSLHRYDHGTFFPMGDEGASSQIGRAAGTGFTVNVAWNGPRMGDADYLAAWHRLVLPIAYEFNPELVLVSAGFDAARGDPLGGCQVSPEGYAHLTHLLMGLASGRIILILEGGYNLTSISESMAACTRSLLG

IC50 | Compound
100 to 500 nM | COc1ccc2nc(C(F)(F)F)nc(SCC(=O)c3ccc(CNC(=O)C(C)(C)O)s3)c2c1 [Compound 134, 2-hydroxy-N-((5-(2-((6-methoxy-2-(trifluoromethyl)quinazolin-4-yl)thio)acetyl)thiophen-2-yl)methyl)-2-methylpropanamide]
≤ 100 nM | CCn1ncc2c(SCC(=O)c3ccc(CNC(=O)CO)s3)nc(C(F)(F)F)nc21 [Compound 136, N-((5-(2-((1-ethyl-6-(trifluoromethyl)-1H-pyrazolo[3,4-d]pyrimidin-4-yl)thio)acetyl)thiophen-2-yl)methyl)-2-hydroxyacetamide]
100 to 500 nM | COc1ccc2nc(C(F)F)nc(SCC(=O)c3ccc(CNC(=O)CO)s3)c2c1 [Compound 139, N-((5-(2-((2-(difluoromethyl)-6-methoxyquinazolin-4-yl)thio)acetyl)thiophen-2-yl)methyl)-2-hydroxyacetamide]
100 to 500 nM | COc1cccc2nc(C)nc(SCC(=O)c3ccc(CNC(=O)CO)s3)c12 [Compound 143, 2-hydroxy-N-((5-(2-((5-methoxy-2-methylquinazolin-4-yl)thio)acetyl)thiophen-2-yl)methyl)acetamide]
≤ 100 nM | CCOc1ccc2nc(C)nc(SCC(=O)c3ccc(CNC(=O)CO)s3)c2c1 [Compound 144, N-((5-(2-((6-ethoxy-2-methylquinazolin-4-yl)thio)acetyl)thiophen-2-yl)methyl)-2-hydroxyacetamide]
≤ 100 nM | CCOc1cc2c(SCC(=O)c3ccc(CNC(=O)CO)s3)nc(C)nc2cn1 [Compound 145, N-((5-(2-((6-ethoxy-2-methylpyrido[3,4-d]pyrimidin-4-yl)thio)acetyl)thiophen-2-yl)methyl)-2-hydroxyacetamide]
≤ 100 nM | Cc1nc(SCC(=O)c2ccc(CNC(=O)CO)s2)c2c(F)c(Cl)ccc2n1 [Compound 146, N-((5-(2-((6-chloro-5-fluoro-2-methylquinazolin-4-yl)thio)acetyl)thiophen-2-yl)methyl)-2-hydroxyacetamide]
≤ 100 nM | Cc1nc(SCC(=O)c2ccc(CNC(=O)CO)s2)c2cc(N(C)C)ncc2n1 [Compound 149, N-((5-(2-((6-(dimethylamino)-2-methylpyrido[3,4-d]pyrimidin-4-yl)thio)acetyl)thiophen-2-yl)methyl)-2-hydroxyacetamide]
≤ 100 nM | Cc1nc(SCC(=O)c2ccc(CNC(=O)CO)s2)c2cc(C(F)(F)F)cc(N(C)C)c2n1 [Compound 150, N-((5-(2-((8-(dimethylamino)-2-methyl-6-(trifluoromethyl)quinazolin-4-yl)thio)acetyl)thiophen-2-yl)methyl)-2-hydroxyacetamide]
100 to 500 nM | CNc1cc(C(F)(F)F)cc2c(SCC(=O)c3ccc(CNC(=O)CO)s3)nc(C)nc12 [Compound 151, 2-hydroxy-N-((5-(2-((2-methyl-8-(methylamino)-6-(trifluoromethyl)quinazolin-4-yl)thio)acetyl)thiophen-2-yl)methyl)acetamide]
100 to 500 nM | COc1cnc2nc(C)nc(SCC(=O)c3ccc(CN(C)C(=O)CO)s3)c2c1 [Compound 162, 2-hydroxy-N-((5-(2-((6-methoxy-2-methylpyrido[2,3-d]pyrimidin-4-yl)thio)acetyl)thiophen-2-yl)methyl)-N-methylacetamide]
100 to 500 nM | COc1ccc2nc(C)nc(SCC(=O)c3ccc(CNC(=O)C4CCCO4)s3)c2c1 (centres unmarked) [Compound 171, N-((5-(2-((6-methoxy-2-methylquinazolin-4-yl)thio)acetyl)thiophen-2-yl)methyl)tetrahydrofuran-2-carboxamide]
100 to 500 nM | COc1ccc2nc(C)nc(SCC(=O)c3ccc(CNC(=O)C(F)F)s3)c2c1 [Compound 172, 2,2-difluoro-N-((5-(2-((6-methoxy-2-methylquinazolin-4-yl)thio)acetyl)thiophen-2-yl)methyl)acetamide]
100 to 500 nM | COc1ccc2nc(C)nc(SCC(=O)c3ccc(CNC(=O)CN)s3)c2c1 [Compound 177, 2-amino-N-((5-(2-((6-methoxy-2-methylquinazolin-4-yl)thio)acetyl)thiophen-2-yl)methyl)acetamide]
≤ 100 nM | COc1ccc2nc(C)nc(SCC(=O)c3ccc(CNC(=O)C4CN(C)C4)s3)c2c1 [Compound 178, N-((5-(2-((6-methoxy-2-methylquinazolin-4-yl)thio)acetyl)thiophen-2-yl)methyl)-1-methylazetidine-3-carboxamide]
100 to 500 nM | CNCC(=O)NCc1ccc(C(=O)CSc2nc(C)nc3ccc(OC)cc23)s1 [Compound 183, N-((5-(2-((6-methoxy-2-methylquinazolin-4-yl)thio)acetyl)thiophen-2-yl)methyl)-2-(methylamino)acetamide]
100 to 500 nM | COc1ccc2nc(C)nc(SCC(=O)c3ccc(CNC(=O)C4CCCN4)s3)c2c1 (centres unmarked) [Compound 184, N-((5-(2-((6-methoxy-2-methylquinazolin-4-yl)thio)acetyl)thiophen-2-yl)methyl)pyrrolidine-2-carboxamide]
≤ 100 nM | COc1ccc2nc(C)nc(SCC(=O)c3ccc(CNC(=O)[C@H](C)O)s3)c2c1 [Compound 185, (S)-2-hydroxy-N-((5-(2-((6-methoxy-2-methylquinazolin-4-yl)thio)acetyl)thiophen-2-yl)methyl)propanamide]
100 to 500 nM | COc1ccc2nc(C)nc(SCC(=O)c3ccc(CNC(=O)[C@@H](C)O)s3)c2c1 [Compound 186, (R)-2-hydroxy-N-((5-(2-((6-methoxy-2-methylquinazolin-4-yl)thio)acetyl)thiophen-2-yl)methyl)propanamide]
1000 to 10000 nM | O=C(CO)NCc1ccc(C(=O)CSc2nc3c(C(F)(F)F)cccc3o2)s1 [Compound 196, 2-hydroxy-N-((5-(2-((4-(trifluoromethyl)benzo[d]oxazol-2-yl)thio)acetyl)thiophen-2-yl)methyl)acetamide]
100 to 500 nM | CCc1nc(SCC(=O)c2ccc(CNC(=O)C(C)(C)C)s2)c2ccccc2n1 [Example 13, N-((5-(2-((2-ethylquinazolin-4-yl)thio)acetyl)thiophen-2-yl)methyl)pivalamide]
100 to 500 nM | CC(C)(C)C(=O)NCc1ccc(C(=O)CSc2nc(C3CCC3)nc3ccccc23)s1 [Example 14, N-((5-(2-((2-cyclobutylquinazolin-4-yl)thio)acetyl)thiophen-2-yl)methyl)pivalamide]
100 to 500 nM | COc1ccc2nc(C)nc(SCC(=O)c3ccc(CNC(=O)C(C)(C)C)s3)c2c1 [Example 17, N-((5-(2-((6-methoxy-2-methylquinazolin-4-yl)thio)acetyl)thiophen-2-yl)methyl)pivalamide]
100 to 500 nM | Cc1nc(SCC(=O)c2ccc(CNC(=O)C(C)(C)C)s2)c2ncccc2n1 [Example 18, N-((5-(2-((2-methylpyrido[3,2-d]pyrimidin-4-yl)thio)acetyl)thiophen-2-yl)methyl)pivalamide]
≤ 100 nM | Cn1cc2c(SCC(=O)c3ccc(CNC(=O)C(C)(C)C)s3)nc(C(F)(F)F)nc2n1 [Example 22, N-((5-(2-((2-methyl-6-(trifluoromethyl)-2H-pyrazolo[3,4-d]pyrimidin-4-yl)thio)acetyl)thiophen-2-yl)methyl)pivalamide]
100 to 500 nM | Cn1ncc2c(SCC(=O)c3ncc(CNC(=O)C(C)(C)C)s3)ncnc21 [Example 27, N-((2-(2-((1-methyl-1H-pyrazolo[3,4-d]pyrimidin-4-yl)thio)acetyl)thiazol-5-yl)methyl)pivalamide]
